The values that follow come from patent publication US10227329B2, “Compounds useful for treating disorders related to RET” (BLUEPRINT MEDICINES CORPORATION, priority 2016, dated 2019).

The target of one assay is wild type RET (Homo sapiens (Human), UniProt P07949). Description: RET Wild Type Assay at KM (Caliper electrophoretic mobility shift). Particulars: 25 μM ATP (KM). The assay is classed as biochemical.
The target of another assay is RET V804L (Homo sapiens (Human), UniProt P07949, V804L). Nature of the assay: RET V804L Gatekeeper Mutant Assay at KM (Caliper electrophoretic mobility shift). The assay is classed as biochemical. Particulars: 10 μM ATP (KM), read-out: V480L Mutant.

Some results are limits rather than exact numbers.

Chain of wild type RET (P07949 29-1114): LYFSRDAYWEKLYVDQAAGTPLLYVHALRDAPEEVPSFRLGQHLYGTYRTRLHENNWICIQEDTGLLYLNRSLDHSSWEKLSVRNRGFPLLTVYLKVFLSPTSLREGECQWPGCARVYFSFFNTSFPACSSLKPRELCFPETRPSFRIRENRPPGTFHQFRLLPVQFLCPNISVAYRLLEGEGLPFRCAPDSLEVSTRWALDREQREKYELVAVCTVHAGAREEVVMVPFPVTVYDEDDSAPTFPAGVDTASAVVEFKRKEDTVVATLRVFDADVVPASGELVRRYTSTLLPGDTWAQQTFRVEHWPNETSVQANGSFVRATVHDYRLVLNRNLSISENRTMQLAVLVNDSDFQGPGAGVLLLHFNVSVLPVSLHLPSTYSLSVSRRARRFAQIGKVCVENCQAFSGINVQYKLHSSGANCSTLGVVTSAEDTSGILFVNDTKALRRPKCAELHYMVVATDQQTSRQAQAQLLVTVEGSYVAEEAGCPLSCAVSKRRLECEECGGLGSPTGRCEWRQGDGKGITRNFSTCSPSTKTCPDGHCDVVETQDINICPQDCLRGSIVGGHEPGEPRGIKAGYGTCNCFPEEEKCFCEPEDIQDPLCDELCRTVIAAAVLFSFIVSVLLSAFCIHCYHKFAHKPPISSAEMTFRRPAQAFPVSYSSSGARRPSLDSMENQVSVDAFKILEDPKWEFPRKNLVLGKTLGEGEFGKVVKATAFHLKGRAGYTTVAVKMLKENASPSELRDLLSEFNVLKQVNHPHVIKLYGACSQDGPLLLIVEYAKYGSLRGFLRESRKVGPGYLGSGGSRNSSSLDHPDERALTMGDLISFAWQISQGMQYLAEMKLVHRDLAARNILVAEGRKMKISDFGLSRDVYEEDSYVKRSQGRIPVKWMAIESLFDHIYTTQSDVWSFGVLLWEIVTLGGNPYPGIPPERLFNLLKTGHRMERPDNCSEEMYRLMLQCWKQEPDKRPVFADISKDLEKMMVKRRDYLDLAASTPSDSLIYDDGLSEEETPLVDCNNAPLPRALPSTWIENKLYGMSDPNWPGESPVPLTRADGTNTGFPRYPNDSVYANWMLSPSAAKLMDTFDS
Chain of RET V804L (P07949 29-1114 V804L): as the sequence (P07949 29-1114) above, with V776L counted along it

Regarding `COC1(C(=O)NCc2ccc(-n3cc(F)cn3)nn2)CN(c2nc(C)cc(Nc3cc(C)[nH]n3)n2)C1` [Compound 150], the IC50 on wild type RET and at RET V804L was 10 to 100 nM throughout.
With `Cc1cc(Nc2cc(C)[nH]n2)nc(N2CC(F)(C(=O)N[C@@H](C)c3ccc(-n4cc(F)cn4)nc3)C2)c1` [Compound 151], the IC50 at wild type RET and at RET V804L was less than 10 nM each time.
On to `Cc1cc(Nc2cc(C)c(F)c(N3CC(C(=O)N[C@@H](C)c4ccc(-n5cc(F)cn5)nc4)C3)n2)n[nH]1` [Compound 152], for which the IC50 on wild type RET and at RET V804L was less than 10 nM in each case.
On to `Cc1cc(Nc2cc(C)[nH]n2)nc(N2CC(F)(C(=O)N[C@@H](C)c3ccc(-n4cc(F)cn4)nc3)C2)n1` [Compound 153], for which the IC50 on wild type RET and at RET V804L was less than 10 nM throughout.
Take `COC1(C(=O)NCc2ccc(N3CC[C@H](F)C3)nc2)CN(c2nc(C)cc(Nc3cc(C)[nH]n3)n2)C1` [Compound 154]: the IC50 on wild type RET and at RET V804L was greater than 100 nM each time.
Consider `COC1(C(=O)NCc2ccc(N3CC[C@@H](F)C3)nc2)CN(c2nc(C)cc(Nc3cc(C)[nH]n3)n2)C1` [Compound 155], for which the IC50 on wild type RET is greater than 100 nM; at RET V804L, 10 to 100 nM.
In the same order, the values of `COC1(C(=O)NCc2ccc(-n3cccn3)nc2)CN(c2nc(Nc3cc(C)[nH]n3)cc(C)c2C#N)C1` [Compound 156] are less than 10 nM and less than 10 nM.
Taken in the same sequence, the figures for `Cc1cc(Nc2cc(C)c(C#N)c(N3CC(F)(C(=O)N[C@@H](C)c4ccc(-n5cccn5)nc4)C3)n2)n[nH]1` [Compound 157] were less than 10 nM and less than 10 nM.
In the same order, the values of `CCC1(C(=O)NCc2ccc(-n3cccn3)nc2)CCN(c2nc(C)cc(Nc3cc(C)[nH]n3)n2)CC1` [Compound 158] are less than 10 nM and less than 10 nM.
Take `Cc1cc(Nc2cc(C)[nH]n2)nc(N2CC(C#N)(C(=O)N[C@@H](C)c3ccc(-n4cc(F)cn4)nc3)C2)n1` [Compound 159]: the IC50 at wild type RET and on RET V804L was less than 10 nM throughout.
With `COC1(C(=O)NCc2ccc(-n3cccn3)nc2)CCN(c2cc(C)cc(Nc3cc(C)[nH]n3)n2)CC1` [Compound 160, N-((6-(1H-pyrazol-1-yl)pyridin-3-yl)methyl)-4-methoxy-1-(4-methyl-6-(3-methyl-1H-pyrazol-5-ylamino)pyridin-2-yl)piperidine-4-carboxamide], the IC50 on wild type RET and at RET V804L was less than 10 nM throughout.
As for `COC1(C(=O)NCc2ccc(-n3cccn3)nc2)CCN(c2nc(C)cc(Nc3cc(C)[nH]n3)n2)CC1` [Compound 161, N-((6-(1H-pyrazol-1-yl)pyridin-3-yl)methyl)-4-methoxy-1-(4-methyl-6-((5-methyl-1H-pyrazol-3-yl)amino)pyrimidin-2-yl)piperidine-4-carboxamide], the IC50 at wild type RET and on RET V804L was less than 10 nM throughout.
`Cc1cc(Nc2cc(C)[nH]n2)nc(N2CCC(O)(C(=O)N(C)Cc3ccc(-n4cccn4)nc3)CC2)n1` [Compound 162]: the IC50 at wild type RET and on RET V804L was less than 10 nM throughout.
On to `COC1(C(=O)NCc2ccc(-n3nc(C)cc3C)nc2)CN(c2nc(C)cc(Nc3cc(C)[nH]n3)n2)C1` [Compound 163], for which the IC50 at wild type RET and on RET V804L was 10 to 100 nM in each case.
Take `Cc1cc(Nc2cc(C)[nH]n2)nc(N2CCC(C(=O)N[C@@H](C)c3ccc(-n4cc(F)cn4)nc3)CC2)c1` [Compound 164]: the IC50 at wild type RET and on RET V804L was less than 10 nM each time.
Turning to `Cc1cc(Nc2cc(C)c(C#N)c(N3CC(F)(C(=O)NCc4ccc(-n5cc(F)cn5)nc4)C3)n2)n[nH]1` [Compound 165], the IC50 at wild type RET and on RET V804L was less than 10 nM throughout.
For the molecule `CCC1(C(=O)N[C@@H](C)c2ccc(-n3cc(F)cn3)nc2)CN(c2nc(C)cc(Nc3cc(C)[nH]n3)n2)C1` [Compound 166, (S)-3-ethyl-N-(1-(6-(4-fluoro-1H-pyrazol-1-yl)pyridin-3-yl)ethyl)-1-(4-methyl-6-((5-methyl-1H-pyrazol-3-yl)amino)pyrimidin-2-yl)azetidine-3-carboxamide], the IC50 at wild type RET and at RET V804L was less than 10 nM in each case.
`COC1(C(=O)N[C@@H](C)c2ccc(-n3cc(F)cn3)nc2)CN(c2cc(C)cc(Nc3cc(C)[nH]n3)n2)C1` [Compound 167]: the IC50 at wild type RET and at RET V804L was less than 10 nM throughout.
`COC1(C(=O)N[C@@H](C)c2ccc(-n3cccn3)nc2)CN(c2nc(Nc3cc(C)[nH]n3)cc(C)c2F)C1` [Compound 168]: the IC50 on wild type RET and on RET V804L was less than 10 nM each time.
Take `COC1(C(=O)N[C@@H](C)c2ccc(-n3cc(F)cn3)nc2)CN(c2nc(C)cc(Nc3cc(C)[nH]n3)n2)C1` [Compound 169]: the IC50 on wild type RET and at RET V804L was less than 10 nM each time.
As for `COC1(C(=O)N[C@@H](C)c2ccc(-n3cc(F)cn3)nc2)CN(c2cc(C)nc(Nc3cc(C)[nH]n3)n2)C1` [Compound 170], the IC50 at wild type RET and at RET V804L was less than 10 nM each time.
In the case of `Cc1cc(Nc2cc(C)c(F)c(N3CC(C(=O)N(C)[C@@H](C)c4ccc(-n5cc(F)cn5)nc4)C3)n2)n[nH]1` [Compound 171], the IC50 on wild type RET and on RET V804L was less than 10 nM in each case.
As for `COC1(C(=O)NCc2ccc(-n3cc(Cl)cn3)nc2)CN(c2nc(C)cc(Nc3cc(C)[nH]n3)n2)C1` [Compound 172], the IC50 on wild type RET and at RET V804L was less than 10 nM in each case.
With `COC1(C(=O)NCc2ccc(-n3cccn3)nc2)CN(c2cc(C(F)F)cc(Nc3cc(C)[nH]n3)n2)C1` [Compound 173], the IC50 at wild type RET and on RET V804L was less than 10 nM each time.
For the molecule `COC1(C(=O)NCc2ccc(-n3cc(F)cn3)nc2)CN(c2nc(Nc3cc(C)[nH]n3)cc(C)c2F)C1` [Compound 174], the IC50 on wild type RET and at RET V804L was less than 10 nM each time.
As for `COC1(C(=O)N[C@@H](C)c2ccc(-n3cccn3)nc2)CN(c2nc(Nc3cc(C)[nH]n3)cc(C)c2C#N)C1` [Compound 175], the IC50 at wild type RET and on RET V804L was less than 10 nM in each case.
`COC1(C(=O)NCc2ccc(N3CCC(F)(F)C3)nc2)CN(c2nc(C)cc(Nc3cc(C)[nH]n3)n2)C1` [Compound 176]: the IC50 at wild type RET and on RET V804L was 10 to 100 nM each time.
Consider `COC1(C(=O)NCc2ccc(-n3ccc(C4CC4)n3)nc2)CN(c2cc(C)cc(Nc3cc(C)[nH]n3)n2)C1` [Compound 177], for which the IC50 on wild type RET and on RET V804L was less than 10 nM each time.
In the case of `COC1(C(=O)NCc2ccc(-n3cc(C4CC4)cn3)nc2)CN(c2nc(C)cc(Nc3cc(C)[nH]n3)n2)C1` [Compound 178], the IC50 on wild type RET and at RET V804L was less than 10 nM in each case.
Regarding `COC1(C(=O)NCc2ccc(-n3ccc(C4CC4)n3)nc2)CN(c2nc(C)cc(Nc3cc(C)[nH]n3)n2)C1` [Compound 179], the IC50 at wild type RET and on RET V804L was less than 10 nM in each case.
Consider `Cc1cc(Nc2cc(C(F)F)cc(N3CC(F)(C(=O)NCc4ccc(-n5cc(F)cn5)nc4)C3)n2)n[nH]1` [Compound 180], for which the IC50 on wild type RET and on RET V804L was less than 10 nM throughout.
Turning to `COC1(C(=O)N[C@@H](C)c2ccc(-n3cccn3)nc2)CCN(c2cc(C)cc(Nc3cc(C)[nH]n3)n2)CC1` [Compound 181], the IC50 at wild type RET and at RET V804L was less than 10 nM in each case.
Regarding `Cc1cc(Nc2cc(C)[nH]n2)nc(N2CCC(O)(C(=O)NCc3ccc(-n4nc(C)cc4C)nc3)CC2)c1` [Compound 182], the IC50 on wild type RET and on RET V804L was less than 10 nM throughout.
On to `Cc1cc(Nc2cc(C(F)F)cc(N3CC(F)(C(=O)NCc4cnc(-n5cc(F)cn5)cn4)C3)n2)n[nH]1` [Compound 183], for which the IC50 at wild type RET and on RET V804L was less than 10 nM throughout.
On to `COC1(C(=O)NCc2ccc(-n3cc(F)cn3)nc2)CN(c2nc(Nc3cc(C)[nH]n3)cc(C)c2C#N)C1` [Compound 184], for which the IC50 at wild type RET and on RET V804L was less than 10 nM throughout.
In the case of `COC1(C(=O)N(C)Cc2ccc(-n3cccn3)nc2)CCN(c2nc(C)cc(Nc3cc(C)[nH]n3)n2)CC1` [Compound 185], the IC50 at wild type RET and at RET V804L was less than 10 nM each time.
Take `COC1(C(=O)N[C@@H](C)c2ccc(-n3cccn3)nc2)CCN(c2nc(C)cc(Nc3cc(C)[nH]n3)n2)CC1` [Compound 186]: the IC50 at wild type RET and at RET V804L was less than 10 nM throughout.
Take `Cc1cc(Nc2cc(C)[nH]n2)nc(N2CCC(O)(C(=O)N(C)[C@@H](C)c3ccc(-n4cccn4)nc3)CC2)n1` [Compound 187]: the IC50 on wild type RET and at RET V804L was less than 10 nM in each case.
Turning to `Cc1cc(Nc2cc(C)[nH]n2)nc(N2CCC(C)(C(=O)N[C@@H](C)c3ccc(-n4cc(F)cn4)nc3)CC2)c1` [Compound 188], the IC50 on wild type RET and at RET V804L was less than 10 nM in each case.
For the molecule `Cc1cc(Nc2cc(C)c(C#N)c(N3CC(F)(C(=O)N[C@@H](C)c4ccc(-n5cc(F)cn5)nc4)C3)n2)n[nH]1` [Compound 189], the IC50 at wild type RET and on RET V804L was less than 10 nM throughout.
`CCC1(C(=O)NCc2ccc(-n3cc(F)cn3)nc2)CCN(c2nc(C)cc(Nc3cc(C)[nH]n3)n2)CC1` [Compound 190]: the IC50 at wild type RET and on RET V804L was less than 10 nM throughout.
Take `Cc1cc(Nc2cc(C)[nH]n2)nc(N2CCC(C)(C(=O)N[C@@H](C)c3ccc(-n4cc(F)cn4)nc3)CC2)n1` [Compound 191]: the IC50 on wild type RET and on RET V804L was less than 10 nM each time.
Turning to `Cc1cc(Nc2cc(C)[nH]n2)nc(N2CCC(O)(C(=O)N[C@@H](C)c3ccc(-n4cc(F)cn4)nc3)CC2)c1` [Compound 192], the IC50 on wild type RET and at RET V804L was less than 10 nM throughout.
As for `COC1(C(=O)NCc2ccc(-n3cc(F)cn3)nc2)CCN(c2cc(C)cc(Nc3cc(C)[nH]n3)n2)CC1` [Compound 193], the IC50 at wild type RET and at RET V804L was less than 10 nM each time.
